What was measured:
TaOR10 + TaORco = assay: two-electrode voltage clamp, Xenopus oocytes; type: cell-based, Toxorhynchites amboinensis; conditions: agonist; co-expressed with TaORco; -80 mV; 10^-10 to 10^-4 M
TaOR2 + TaORco = assay: two-electrode voltage clamp, Xenopus oocytes; type: cell-based, Toxorhynchites amboinensis; conditions: agonist; co-expressed with TaORco; -80 mV; 10^-10 to 10^-4 M

| Compound | EC50 (TaOR10 + TaORco) | EC50 (TaOR2 + TaORco) |
| --- | --- | --- |
| c1ccc2[nH]ccc2c1 [indole] | 9.16 µM | 88 nM |
| Cc1c[nH]c2ccccc12 [skatole] | 0.087 µM | 1380 nM |
